Assay results from patent US20250353891A1 (MEDIMMUNE LIMITED, priority 2022, published 2025).
Starred links: 1 amine or outer side, 2 acyl side, 3 side chain; linkers in the order of their positions; H or OH if unused. Non-standard residues stand in square brackets, D forms with d. Residues, ends and D or L forms follow the SMILES beside them. Groups on a side chain read outwards from the residue. *: point of attachment. C20 diacid = O=C(O)CCCCCCCCCCCCCCCCCCC(=O)*; γGlu = O=C(O)[C@H](CCC(=O)[*:2])N[*:1]; αMeF = C[C@](N)(Cc1ccccc1)C(=O)O; AEEA = NCCOCCOCC(=O)O; Aib = CC(C)(N)C(=O)O

Legend:
[1] = target: human glucagon receptor (hGCGR) (Homo sapiens, UniProt P47871); experiment: cAMP production (HTRF) in CHO cells expressing hGCGR; format: cell-based; parameters: expressed in transfected cells; conditions: Table 6, peptides modified at position 17; cAMP in CHO hGCGR cells; geometric mean; read-out: hGluc-R EC50
Method in brief: (§1)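 Read-out: HTRF cAMP (anti-cAMP cryptate donor, cAMP-d2 acceptor in conjugate/lysis buffer), converted to % Delta F and fitted by 4-parameter logistic for EC50. Cell densities were 1×10^5 cells/mL (hGLP-1R) or 2×10^5 cells/mL (hGCGR). Stimulation lasted 30 min at room temperature.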

[2] = target: human GLP-1 receptor (hGLP-1R) (Homo sapiens, UniProt P43220); experiment: cAMP production (HTRF) in CHO cells expressing hGLP-1R; format: cell-based; parameters: expressed in transfected cells; conditions: for EC50: Table 6, peptides modified at position 17, cAMP in CHO hGLP-1R cells, geometric mean, read-out: hGLP-1R EC50; for % Relative Potency Ratio: Table 6, % GLP-1R activity relative to GLP-1 / % GlucR activity relative to glucagon
Method in brief: as §1

Chain of human glucagon receptor (hGCGR) (P47871 26-477): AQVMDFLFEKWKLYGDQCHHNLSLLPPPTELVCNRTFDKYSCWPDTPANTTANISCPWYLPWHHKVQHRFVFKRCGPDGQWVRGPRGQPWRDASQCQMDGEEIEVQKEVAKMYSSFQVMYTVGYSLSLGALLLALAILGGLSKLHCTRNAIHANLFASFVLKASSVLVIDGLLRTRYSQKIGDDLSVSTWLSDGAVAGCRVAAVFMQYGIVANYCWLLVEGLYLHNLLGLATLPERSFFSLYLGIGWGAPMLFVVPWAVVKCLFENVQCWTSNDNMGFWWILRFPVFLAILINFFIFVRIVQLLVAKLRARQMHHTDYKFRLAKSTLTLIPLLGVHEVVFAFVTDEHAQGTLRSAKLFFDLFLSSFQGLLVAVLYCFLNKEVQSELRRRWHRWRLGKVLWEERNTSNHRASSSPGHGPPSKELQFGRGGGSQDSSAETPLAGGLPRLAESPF
Chain of human GLP-1 receptor (hGLP-1R) (P43220 24-463): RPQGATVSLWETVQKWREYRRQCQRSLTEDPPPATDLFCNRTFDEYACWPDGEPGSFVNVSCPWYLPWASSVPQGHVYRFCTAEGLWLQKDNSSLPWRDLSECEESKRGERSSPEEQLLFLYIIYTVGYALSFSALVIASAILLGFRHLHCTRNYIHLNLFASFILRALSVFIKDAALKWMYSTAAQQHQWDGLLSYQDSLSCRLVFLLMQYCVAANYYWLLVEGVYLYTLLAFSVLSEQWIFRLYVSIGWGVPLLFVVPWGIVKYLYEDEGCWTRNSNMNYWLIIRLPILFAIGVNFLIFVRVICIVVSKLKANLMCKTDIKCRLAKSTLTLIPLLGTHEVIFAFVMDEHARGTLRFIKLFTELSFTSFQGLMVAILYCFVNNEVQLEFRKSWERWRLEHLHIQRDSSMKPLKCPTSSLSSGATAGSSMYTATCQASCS

Compound	EC50 [1] [nM]	EC50 [2] [nM]	% Relative Potency Ratio [2]
CC(C)C[C@H](NC(=O)[C@H](Cc1c[nH]c2ccccc12)NC(=O)[C@H](CCCNC(=N)N)NC(=O)[C@@H](NC(=O)[C@H](Cc1ccccc1)NC(=O)[C@H](CC(=O)O)NC(=O)[C@H](CCC(N)=O)NC(=O)[C@H](C)NC(=O)[C@H](CCCNC(=N)N)NC(=O)[C@H](CCCCNC(=O)COCCOCCNC(=O)COCCOCCNC(=O)CC[C@H](NC(=O)CCCCCCCCCCCCCCCCCCC(=O)O)C(=O)O)NC(=O)[C@H](CO)NC(=O)[C@H](CCC(=O)O)NC(=O)[C@H](CC(C)C)NC(=O)[C@](C)(Cc1ccccc1)NC(=O)[C@H](CCCCN)NC(=O)[C@H](CO)NC(=O)[C@@H](NC(=O)[C@H](CC(=O)O)NC(=O)[C@H](CO)NC(=O)[C@@H](NC(=O)[C@H](Cc1ccccc1)NC(=O)[C@@H](NC(=O)CNC(=O)[C@H](CCC(N)=O)NC(=O)C(C)(C)NC(=O)[C@@H](N)Cc1c[nH]cn1)[C@@H](C)O)[C@@H](C)O)C(C)C)C(C)C)C(=O)N[C@@H](CC(C)C)C(=O)N[C@@H](CCC(=O)O)C(=O)NC(C)(C)C(=O)N[C@@H](CCCCN)C(=O)O [Peptide 504]	0.551	0.124	8.8
CC(C)C[C@H](NC(=O)[C@H](Cc1c[nH]c2ccccc12)NC(=O)[C@H](CCC(N)=O)NC(=O)[C@@H](NC(=O)[C@H](Cc1ccccc1)NC(=O)[C@H](CC(=O)O)NC(=O)[C@H](CCC(N)=O)NC(=O)[C@H](C)NC(=O)[C@H](CCCNC(=N)N)NC(=O)[C@H](CCCCNC(=O)COCCOCCNC(=O)COCCOCCNC(=O)CC[C@H](NC(=O)CCCCCCCCCCCCCCCCCCC(=O)O)C(=O)O)NC(=O)[C@@H](NC(=O)[C@H](CC(=O)O)NC(=O)[C@H](CC(C)C)NC(=O)[C@](C)(Cc1ccccc1)NC(=O)[C@H](CCCCN)NC(=O)[C@H](CO)NC(=O)[C@@H](NC(=O)[C@H](CC(=O)O)NC(=O)[C@H](CO)NC(=O)[C@@H](NC(=O)[C@H](Cc1ccccc1)NC(=O)[C@@H](NC(=O)CNC(=O)[C@H](CCC(N)=O)NC(=O)C(C)(C)NC(=O)[C@@H](N)Cc1c[nH]cn1)[C@@H](C)O)[C@@H](C)O)C(C)C)[C@@H](C)O)C(C)C)C(=O)N[C@@H](CC(C)C)C(=O)N[C@@H](CCC(=O)O)C(=O)NC(C)(C)C(=O)N[C@@H](CCCCN)C(N)=O [Peptide 505] (H-H[Aib]QGTFTSDVSK[αMeF]LDTK([AEEA-AEEA-γGlu-C20 diacid])RAQDFVQWLLE[Aib]K-NH2)	0.191	0.0421	9.0
CC(C)C[C@H](NC(=O)[C@H](Cc1c[nH]c2ccccc12)NC(=O)[C@H](CCCNC(=N)N)NC(=O)[C@@H](NC(=O)[C@H](Cc1ccccc1)NC(=O)[C@H](CC(=O)O)NC(=O)[C@H](CCC(N)=O)NC(=O)[C@H](C)NC(=O)[C@H](CCCNC(=N)N)NC(=O)[C@H](CCCCNC(=O)COCCOCCNC(=O)COCCOCCNC(=O)CC[C@H](NC(=O)CCCCCCCCCCCCCCCCCCC(=O)O)C(=O)O)NC(=O)[C@H](CO)NC(=O)[C@H](CCC(=O)O)NC(=O)[C@H](CC(C)C)NC(=O)[C@](C)(Cc1ccccc1)NC(=O)[C@H](CCCCN)NC(=O)[C@H](CO)NC(=O)[C@@H](NC(=O)[C@H](CC(=O)O)NC(=O)[C@H](CO)NC(=O)[C@@H](NC(=O)[C@H](Cc1ccccc1)NC(=O)[C@@H](NC(=O)CNC(=O)[C@H](CCC(N)=O)NC(=O)C(C)(C)NC(=O)[C@@H](N)Cc1c[nH]cn1)[C@@H](C)O)[C@@H](C)O)C(C)C)C(C)C)C(=O)N[C@H](C(=O)N[C@@H](CCC(=O)O)C(=O)NC(C)(C)C(=O)NCC(N)=O)C(C)C [Peptide 508] (H-H[Aib]QGTFTSDVSK[αMeF]LESK([AEEA-AEEA-γGlu-C20 diacid])RAQDFVRWLVE[Aib]G-NH2)	2.8	0.0679	81.6
CC(C)C[C@H](NC(=O)[C@H](Cc1c[nH]c2ccccc12)NC(=O)[C@H](CCCNC(=N)N)NC(=O)[C@@H](NC(=O)[C@H](Cc1ccccc1)NC(=O)[C@H](CC(=O)O)NC(=O)[C@H](CCC(N)=O)NC(=O)[C@H](C)NC(=O)[C@H](CCCNC(=N)N)NC(=O)[C@H](CCCCNC(=O)COCCOCCNC(=O)COCCOCCNC(=O)CC[C@H](NC(=O)CCCCCCCCCCCCCCCCCCC(=O)O)C(=O)O)NC(=O)[C@H](CO)NC(=O)[C@H](CCC(=O)O)NC(=O)[C@H](CC(C)C)NC(=O)[C@](C)(Cc1ccccc1)NC(=O)[C@H](CCCCN)NC(=O)[C@H](CO)NC(=O)[C@@H](NC(=O)[C@H](CC(=O)O)NC(=O)[C@H](CO)NC(=O)[C@@H](NC(=O)[C@H](Cc1ccccc1)NC(=O)[C@@H](NC(=O)CNC(=O)[C@H](CCC(N)=O)NC(=O)C(C)(C)NC(=O)[C@@H](N)Cc1c[nH]cn1)[C@@H](C)O)[C@@H](C)O)C(C)C)C(C)C)C(=O)N[C@@H](CC(C)C)C(=O)NC(C)(C)C(=O)N[C@H](C(=O)N[C@@H](CCC(=O)O)C(=O)O)[C@@H](C)O [Peptide 509] (H-H[Aib]QGTFTSDVSK[αMeF]LESK([AEEA-AEEA-γGlu-C20 diacid])RAQDFVRWLL[Aib]TE-OH; N-terminus assumed)	3.02	0.594	10.1

Compounds with a lower EC50 [1], results first:

EC50 [1] [nM]	EC50 [2] [nM]	% Relative Potency Ratio [2]	Compound
0.175	0.0821	4.2	CC(C)C[C@H](NC(=O)[C@H](Cc1c[nH]c2ccccc12)NC(=O)[C@H](CCC(N)=O)NC(=O)[C@@H](NC(=O)[C@H](Cc1ccccc1)NC(=O)[C@H](CC(=O)O)NC(=O)[C@H](CCCNC(=N)N)NC(=O)[C@H](C)NC(=O)[C@H](CCCNC(=N)N)NC(=O)[C@H](CCCCNC(=O)COCCOCCNC(=O)COCCOCCNC(=O)CC[C@H](NC(=O)CCCCCCCCCCCCCCCCCCC(=O)O)C(=O)O)NC(=O)[C@@H](NC(=O)[C@H](CC(=O)O)NC(=O)[C@H](CC(C)C)NC(=O)[C@](C)(Cc1ccccc1)NC(=O)[C@H](CCCCN)NC(=O)[C@H](CO)NC(=O)[C@@H](NC(=O)[C@H](CC(=O)O)NC(=O)[C@H](CO)NC(=O)[C@@H](NC(=O)[C@H](Cc1ccccc1)NC(=O)[C@@H](NC(=O)CNC(=O)[C@H](CCC(N)=O)NC(=O)C(C)(C)NC(=O)[C@@H](N)Cc1c[nH]cn1)[C@@H](C)O)[C@@H](C)O)C(C)C)[C@@H](C)O)C(C)C)C(=O)N[C@@H](CC(C)C)C(=O)N[C@@H](CCCNC(=N)N)C(=O)NC(C)(C)C(=O)N[C@@H](C)C(=O)O [Peptide 502] (H-H[Aib]QGTFTSDVSK[αMeF]LDTK([AEEA-AEEA-γGlu-C20 diacid])RARDFVQWLLR[Aib]A-OH; N-terminus assumed)
0.0849	0.0812	2.1	CC(C)C[C@H](NC(=O)[C@H](Cc1c[nH]c2ccccc12)NC(=O)[C@H](CCCNC(=N)N)NC(=O)[C@@H](NC(=O)[C@H](Cc1ccccc1)NC(=O)[C@H](CC(=O)O)NC(=O)[C@H](CCC(N)=O)NC(=O)[C@H](C)NC(=O)[C@H](CCCNC(=N)N)NC(=O)[C@H](CCCCNC(=O)COCCOCCNC(=O)COCCOCCNC(=O)CC[C@H](NC(=O)CCCCCCCCCCCCCCCCCCC(=O)O)C(=O)O)NC(=O)[C@@H](NC(=O)[C@H](CC(=O)O)NC(=O)[C@H](CC(C)C)NC(=O)[C@](C)(Cc1ccccc1)NC(=O)[C@H](CCCCN)NC(=O)[C@H](CO)NC(=O)[C@@H](NC(=O)[C@H](CC(=O)O)NC(=O)[C@H](CO)NC(=O)[C@@H](NC(=O)[C@H](Cc1ccccc1)NC(=O)[C@@H](NC(=O)CNC(=O)[C@H](CCC(N)=O)NC(=O)C(C)(C)NC(=O)[C@@H](N)Cc1c[nH]cn1)[C@@H](C)O)[C@@H](C)O)C(C)C)[C@@H](C)O)C(C)C)C(=O)N[C@@H](CC(C)C)C(=O)N[C@@H](CCC(=O)O)C(=O)NC(C)(C)C(=O)N[C@@H](CCCCN)C(=O)O [Peptide 503]
0.149	0.162	1.8	CC(C)C[C@H](NC(=O)[C@H](Cc1c[nH]c2ccccc12)NC(=O)[C@H](C)NC(=O)[C@@H](NC(=O)[C@H](Cc1ccccc1)NC(=O)[C@H](CC(=O)O)NC(=O)[C@H](CCCNC(=N)N)NC(=O)[C@H](C)NC(=O)[C@H](CCCNC(=N)N)NC(=O)[C@H](CCCCNC(=O)COCCOCCNC(=O)COCCOCCNC(=O)CC[C@H](NC(=O)CCCCCCCCCCCCCCCCCCC(=O)O)C(=O)O)NC(=O)[C@@H](NC(=O)[C@H](CC(=O)O)NC(=O)[C@H](CC(C)C)NC(=O)[C@](C)(Cc1ccccc1)NC(=O)[C@H](CCCCN)NC(=O)[C@H](CO)NC(=O)[C@@H](NC(=O)[C@H](CC(=O)O)NC(=O)[C@H](CO)NC(=O)[C@@H](NC(=O)[C@H](Cc1ccccc1)NC(=O)[C@@H](NC(=O)CNC(=O)[C@H](CCC(N)=O)NC(=O)C(C)(C)NC(=O)[C@@H](N)Cc1c[nH]cn1)[C@@H](C)O)[C@@H](C)O)C(C)C)[C@@H](C)O)C(C)C)C(=O)N[C@@H](CC(C)C)C(=O)N[C@@H](CCC(=O)O)C(=O)NC(C)(C)C(=O)NCC(=O)O [Peptide 506] (H-H[Aib]QGTFTSDVSK[αMeF]LDTK([AEEA-AEEA-γGlu-C20 diacid])RARDFVAWLLE[Aib]G-OH; N-terminus assumed)
0.0866	0.0529	3.2	CC(C)C[C@H](NC(=O)[C@H](Cc1c[nH]c2ccccc12)NC(=O)[C@H](C)NC(=O)[C@@H](NC(=O)[C@H](Cc1ccccc1)NC(=O)[C@H](CC(=O)O)NC(=O)[C@H](CCCNC(=N)N)NC(=O)[C@H](C)NC(=O)[C@H](CCCNC(=N)N)NC(=O)[C@H](CCCCNC(=O)COCCOCCNC(=O)COCCOCCNC(=O)CC[C@H](NC(=O)CCCCCCCCCCCCCCCCCCC(=O)O)C(=O)O)NC(=O)[C@@H](NC(=O)[C@H](CC(=O)O)NC(=O)[C@H](CC(C)C)NC(=O)[C@](C)(Cc1ccccc1)NC(=O)[C@H](CCCCN)NC(=O)[C@H](CO)NC(=O)[C@@H](NC(=O)[C@H](CC(=O)O)NC(=O)[C@H](CO)NC(=O)[C@@H](NC(=O)[C@H](Cc1ccccc1)NC(=O)[C@@H](NC(=O)CNC(=O)[C@H](CCC(N)=O)NC(=O)C(C)(C)NC(=O)[C@@H](N)Cc1c[nH]cn1)[C@@H](C)O)[C@@H](C)O)C(C)C)[C@@H](C)O)C(C)C)C(=O)N[C@@H](CC(C)C)C(=O)N[C@@H](CCC(=O)O)C(=O)NC(C)(C)C(=O)NCC(N)=O [Peptide 507]
